Measured values: US20260183297A1, “SELECTION OF PATIENTS FOR THE TREATMENT OF FADS1-MEDIATED DISEASES OR DISORDERS USING FADS-1 INHIBITORS” (AMGEN INC., priority 2022, published 2026)

Legend:
[1] = Indirect calorimetry studies (CLAMS); assay type: in vivo, mouse; details: DIO mice, 30 mg/kg
Protocol: Twenty-four Fads1 KO and 24 WT mice entered the Comprehensive Laboratory Animal Monitoring System (CLAMS; Columbus Instruments, Columbus, Ohio—Oxymax Model 2018, 0233-004M, Oxymax for Windows v5.53 software, Hardware configuration 190395) before starting the HFD feeding phase, and again at 6 and 12 weeks on HFD. […] Body weight was measured daily, and food consumption was measured biweekly. Animals reentered the CLAMS on days 17-21 and on days 38-42. The volume of oxygen consumption (VO2), carbon dioxide production (VCO2), RER, and energy expenditure (HEAT) were measured during that period.

[2] = target: T1, FADS1 (Mus musculus, UniProt Q920L1); assay: In vivo FADS1 activity measurement using blood plasma (13C5-DGLA to 13C5-AA conversion); details: DIO mice, 24 hours after dosing
T1 construct: Liver from ^13C5-DGLA dosed DIO mice was collected for pharmacodynamic (PD) analysis; from tissue; host or cells: living DIO C57Bl/6 mice; 13C5-DGLA to 13C5-AA conversion read in liver (A4) or blood plasma (A5)
T1 sequence (Q920L1 1-447): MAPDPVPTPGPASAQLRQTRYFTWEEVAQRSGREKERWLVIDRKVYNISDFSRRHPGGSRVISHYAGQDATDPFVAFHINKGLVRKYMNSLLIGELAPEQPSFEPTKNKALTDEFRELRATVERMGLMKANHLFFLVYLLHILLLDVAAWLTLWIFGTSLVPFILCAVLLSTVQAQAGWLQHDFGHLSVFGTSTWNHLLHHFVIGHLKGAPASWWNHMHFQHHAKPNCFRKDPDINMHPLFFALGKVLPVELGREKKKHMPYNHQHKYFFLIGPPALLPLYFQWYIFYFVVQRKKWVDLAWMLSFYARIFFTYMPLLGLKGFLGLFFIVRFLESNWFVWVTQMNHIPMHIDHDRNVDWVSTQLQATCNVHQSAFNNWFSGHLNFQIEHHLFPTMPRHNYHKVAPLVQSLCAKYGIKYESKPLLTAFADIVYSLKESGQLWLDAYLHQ
Protocol: FADS1 activity in the presence of Compounds B-E was also measured using blood plasma (in addition to using the liver). The above procedures were perforned to measure the in vivo activity of FADS1 using the liver. The following general procedures were used to measure FADS1 activity using blood plasma. Diet-induced obese (DIO) mice that were on 12 weeks of high fat diet were used to determine the pharmacokinetic (PK) and pharmacodynamic (PD) properties of test compounds. To determine the target coverage at 24 hours after dosing with a test compound (e.g., Compounds B-E, shown below), mice were IP dosed with 0.1 ml solution of ^13C5-DGLA (2 mM in 18.42 mM Na2CO3 buffer). Necropsy were performed at 30 minutes post ^13C5-DGLA dosing. EDTA Plasma was collected for PK and PD analysis.
For PD analysis, 50 μl of plasma or standards (pooled untreated mouse plasma with ^13C5-DGLA and ^13C5-AA added at concentration of 4.57 nM to 10 uM) were mixed with 10 μl of 90% methanol and 10 μl of 50 μg/mL of ALA-D14 as an internal standard (100 μM alpha-linolenic acid-d14 (ALA-d14, Cayman Chemical)) in a 96 well plate. 490 μl of chloroform:methanol (2:1) were added to each well. Plates were plated on a shaker for 5 min prior to adding 66.5 μl water. The plates were shaken for another 5 minutes, followed by centrifugation at 2000 RPM for 5 minutes. The bottom organic layer was transferred to a clean 96 well plate. 333 ul of chloroform:methanol (2:1) were added to the to the remaining liquid phase in the original plate. After 5 min of shaking, the plate was centrifuged at 2000 RPM for 5 minutes. The bottom layer was collected and combined with the first bottom layer. The combined layers were evaporated to dryness under a constant stream of nitrogen gas. After the plate has been dried, 100 μl of 2N NaOH was added to the mixture for subsequent saponification at 65° C. for 1 hour. The samples were then cooled to room temperature and the mixture was then acidified with 50 μl of formic acid followed by two consecutive chloroform:methanol (2:1) extractions. 500 μl of Chloroform:methanol (2:1) was added and the mixture thoroughly mixed by shaking. The plate was then centrifuged at 2,000 rpm for 5 min. The bottom chloroform phase was transferred to a new 2 mL 96 well plate and the remaining aqueous layer was extracted with another 250 μl of chloroform:methanol (2:1). The organic extracts were combined, and the solvent was evaporated to dryness by placing the plate under nitrogen. Extracts were then dissolved in 200 μl of acetonitrile/methanol (1:1). The plate was placed on a shaker for 30 minutes to ensure thorough mixing and dissolution of the extracted fatty acids. The plate was then centrifuged at 2000 RPM for 5 minutes. 80 μl of the samples were transferred to a new 96 well polypropylene plate for analysis on a LC-MS/MS for the following analytes: ^13C5-DGLA, ^13C5-AA, with ALA-d14 as the internal standard. Briefly describing the LC-MS/MS method: 20 μl of sample was injected onto a Poroshell 120 EC-C18 3.0×50 mm, 1.9 μm id column. Mobile phases were 80% acetonitrile containing 5 mM ammonium acetate for mobile phase A and 99.5% acetonitrile containing 5 mM ammonium acetate for mobile phase B. The LC gradient was a 3 min long method at a flow rate of 0.4 mL/minute consisting of 45% B at 0 to 0.5 min, followed by a 45% B to 100% B from 0.5 to 2.0 min; the system was then maintained at 100% B from 2.0 min to 2.5 min and returned to 45% B at 2.6 min and maintained until end of the method. The analyte peak areas were quantified by using the SCIEX Analyst software. To determine the degree of FADS1 inhibition, the in vivo FADS1 activity, POC, percent of inhibition, and in vivo IC50 values are calculated as described above for liver FADS1 activity measurement.

[3] = mouse, single oral dose 10 mg/kg
[4] = mouse, single oral dose 30 mg/kg

SMILES	body weight ([1]; 42 days, vs vehicle)	carbon dioxide production ([1]; 42 days, vs vehicle)	energy expenditure ([1]; 42 days, vs vehicle)	oxygen consumption ([1]; 42 days, vs vehicle)	light cycle RER ([1]; at 17-23 days and 38-42 days)	activity in the dark cycle ([1]; vs vehicle-treated mice)	Plasma Avg % Conversion ([2]; single oral dose 10 mg/kg)	Plasma Avg % Conversion ([2]; single oral dose 30 mg/kg)	Plasma Avg % Conversion ([2]; single oral dose 50 mg/kg)	inhibition at 10 mg/kg [2, 3]	inhibition at 30 mg/kg [2, 4]	inhibition at 50 mg/kg ([2]; mouse, single oral dose 50 mg/kg)	Plasma Avg % Conversion ([2]; single oral dose 3 mg/kg)	inhibition at 3 mg/kg ([2]; mouse, single oral dose 3 mg/kg)
COc1ccn2c(=O)c(-c3cnn(CC(F)(F)C(F)(F)F)c3)c(C(F)(F)F)nc2c1 [Compound A, 8-methoxy-3-(1-(2,2,3,3,3-pentafluoropropyl)-1H-pyrazol-4-yl)-2-(trifluoromethyl)-4H-pyrido[1,2-a]pyrimidin-4-one]	significantly reduced body weight	no differences	no differences	no differences	decreased	trended to be more active	–	–	–	–	–	–	–	–
COc1ccn2c(=O)c(-c3cnn(CC(F)(F)C(F)(F)F)c3)c(C(F)(F)F)nc2n1 [Compound B]	–	–	–	–	–	–	2.9%	2.2%	1.9%	95.2%	96.3%	96.9%	–	–
N#Cc1ccn2c(=O)c(-c3cnn(CC(F)(F)C(F)(F)F)c3)c(C(F)(F)F)nc2c1 [Compound C]	–	–	–	–	–	–	4.3%	1.7%	–	92.8%	97.1%	–	10.1%	83.3%
